One substance from patent publication US7592003B2, “Regulation of toll-like receptors on stem cells” (Oklahoma Medical Research Foundation, priority 2005, dated 2009) can be followed below.

One assay has as its system CLP. Put plainly: Serum-free, stromal cell-free culture of CLP with SCF, FL and IL-7, CD19/Mac-1 flow cytometry. The format is cell-based, mouse. Here is the method: FIGS. 6A-D—TLR stimulation allows lymphoid biased progenitors to produce myeloid dendritic cells at the expense of B lymphopoiesis. (FIG. 6A) Sorted CLP (5,000/well) from C57BL/6 or MyD88^−/− mice were stimulated in X-VIVO15 with medium alone, LPS (10 μg/ml) or Pam3CSK4 (100 ng/ml) plus SCF, FL and IL-7. After 7 days in culture, cells were analyzed by flow cytometry for expression of CD19and Mac-1 (left). The bar graphs depict cell yields for CD19^+ cells or Mac-1^+ cells (right) and the data represent mean values with standard deviations from triplicate cultures (*P<0.02). The results are representative of those obtained in five independent experiments. (FIG. 6B) Subsets of the recovered cells described in FIG. 6A were sorted and used to prepare Giemsa stained slides. (FIG. 6C) Cultured cells from C57BL/6 mice were also analyzed by flow cytometry for expression of Gr-1 and CD11c. (FIG. 6D) Sorted CLP from C57BL/6 mice were cultured in the presence of SCF, FL and IL-7 with a range of concentrations of LPS or combination of recombinant mouse CD14-Fc protein (1 μg/ml) plus LPS. After 7 days in culture, cells were analyzed by flow cytometry for expression of CD19 and Mac-1 (left). The bar graph depicts cell yields for CD19^+ cells or Mac-1^+ cells (right). Data represent mean values with standard deviations from triplicate cultures (*P<0.003). […]

A further assay relates to GMP. Put plainly: Culture of sorted GMP for 72 h, morphology and Mac-1/F4/80 flow cytometry. The format is cell-based, mouse. Here is the method:
FIGS. 5A-C—TLR stimulation drives differentiation of GMP into F4/80^hi monocytes/macrophages. (FIG. 5A) These photomicrographs were prepared with Giemsa-May-Grünwald stained cytocentrifuged slides. ([…]) Sorted GMP were stimulated with LPS (1 μg/ml), Pam3CSK4 (100 ng/ml), M-CSF, or GM-CSF. After 72 h in culture, cells were analyzed by flow cytometry for expression of F4/80 and Mac-1. Percentages indicate the frequencies of Mac-1^lo F4/80^lo or Mac-1^hi F4/80^hi cells. CD86, Gr-1, or CD62L were analyzed by flow cytometry on Mac-1^hi F4/80^hi cells. Open histograms depict staining with the appropriate isotype matched Abs. The results are representative of those obtained in two independent experiments. (FIG. 5C) The bar graphs depict cell yields of Mac-1^lo F4/80^lo or Mac-1^hi F4/80^hi cells. The data represent mean values with standard deviations from triplicate cultures and are representative of three independent experiments.
Serum-free, stromal cell-free cell cultures. Round-bottomed 96-well plates or flat-bottomed 24-well plates (Corning Inc.) were used for these cultures. […]
Cell morphology. Cytospins of cultured progenitor cells were stained with Giemsa-May-Grünwald (Sigma Diagnostics, St. Louis, Mo.), mounted in Immersol (Zeiss, Thornwood, N.Y.), and analyzed on a Zeiss Axioplan 2i microscope with a 100×/1.4 NA Plan Achromat objective. […]
(In general: In flow cytometry, cells or beads pass a laser one at a time.)

For Pam3CSK4, the “Phenotype (CD11c, Gr-1) of cells produced from CLP” value in the assay on CLP (7 days) was “Gr-1^− but less homogenous”. In the assay with CLP (with SCF, FL and IL-7, 7 days), the “Cell types emerging from CLP (CD19+ vs Mac-1+)” value is reported as “a mixture of the two cell types”. For the same substance, the “CD11b/Mac-1 expression of cells produced from GMP” value with GMP is “Virtually all cells produced in response to LPS or Pam3CSK4 were CD11b/Mac-1^+”. The “Morphology of recovered cells” value in the assay on GMP (GMP, Giemsa-May-Grünwald) is listed as “less homogeneous in appearance”.
